Measured values published in patent publication US20230183246A1, “CONTINUOUS FLOW SONOGASHIRA COUPLING SYNTHESIS METHOD” (Purdue Research Foundation, priority 2020, published 2023).
Where “and” joins values, the source holds several entries; their conditions need not be identical. Equal entries are not always repeated.

Key:
RET and its mutant forms = conditions: compared with reported RET inhibitors; cited from earlier work
FLT-3 = conditions: cited from earlier work
solubility in DMF = format: physicochemical
Procedure: The reaction set-up used a T-mixer at 20° C. prior to injecting the solution of 4 into the heated glass reactor chip that was held at 80 or 95° C. […] Based on these findings, we sought to modify our strategy for execution of this reaction in flow.

Row | solubility (solubility in DMF; 20° C. in DMF) | solubility (solubility in DMF; 20° C. in DMF, after recrystallizing twice (EtOH, then EtOAc)) | solubility (solubility in DMF; 55° C. in DMF) | Compound | inhibition activity of RET and its mutant forms (RET and its mutant forms) | potency toward inhibition of all FLT-3 forms (FLT-3)
1 | – | – | – | CN1CCN(Cc2ccc(NC(=O)c3cncc(C#Cc4cnc(N)c5ncccc45)c3)cc2C(F)(F)F)CC1 [HSN608, 5-((8-Amino-1,7-naphthyridin-5-yl)ethynyl)-N-(4-((4-methylpiperazin-1-yl)methyl)-3-(trifluoromethyl)phenyl)nicotinamide] | better than the reported RET inhibitors | high potency
2 | 14.6 mg/ml and 0.065 M | 0.0785 M and 17.6 mg/ml | 38.1 mg/ml and 0.170 M | Nc1ncc(Br)c2cccnc12 [compound 4, 5-bromo-8-amino-1,7-naphthyridine] | – | –
